Data set [1] deals with complementary RNA 3′-r(CGCAAAAAACGA) (SEQ ID NO:12). The data set is described as follows: Melting temperature (Tm) of annealing products of antisense oligonucleotide analogues with complementary RNA sense strand. Format: binding. The conditions noted are these: for Tm for complementary RNA: 100 mM NaCl, 10 mM sodium phosphate buffer (pH 7.2), 4 μM antisense strand, 4 μM sense strand, UV 260 nm; for ΔTm/mod. for complementary RNA: change of Tm per modified residue versus natural strand. As to the method:
(§1) The melting temperatures (Tm's) of annealing products between antisense strands, which were the various oligonucleotide analogues synthesized in Example 2, and natural DNA- or RNA-based sense strands were measured to investigate the hybridizing ability of the oligonucleotide analogues of the present invention for complementary DNA and RNA.
(§2) Each sample solution (500 μL) with end concentrations of 100 mM NaCl, 10 mM sodium phosphate buffer (pH 7.2), 4 μM antisense strand, and 4 μM sense strand, respectively, was bathed in boiling water, and slowly cooled to room temperature over the course of 10 hours. The sample solution was gradually cooled to 5° C., kept at 5° C. for a further period of 20 minutes, and then started to be measured, with a stream of nitrogen being passed through a cell chamber of a spectrophotometer (UV-2100PC, Shimadzu) for prevention of moisture condensation. The sample temperature was raised at a rate of 0.2° C./minute until 90° C., and the ultraviolet absorption at 260 nm was measured at intervals of 0.1° C. To prevent changes in the sample concentration with increases in the temperature, the cell was provided with a closure, and a drop of a mineral oil was applied onto the surface of the sample solution during measurement.

The test system of data set [2] is complementary DNA 3′-CGCAAAAAACGA-5′ (SEQ ID NO:12). As to the kind of experiment: Melting temperature (Tm) of annealing products of antisense oligonucleotide analogues with complementary DNA sense strand. It counts as binding. Particulars: for Tm for complementary DNA: 100 mM NaCl, 10 mM sodium phosphate buffer (pH 7.2), 4 μM antisense strand, 4 μM sense strand, UV 260 nm; for ΔTm/mod. for complementary DNA: change of Tm per modified residue versus natural strand. As to the method:
as §1, §2

The target in data set [3] is snake venom phosphodiesterase (Crotalus adamanteus, UniProt J3SEZ3).
[4] abbreviates: total increase versus natural strand.

Sequence of snake venom phosphodiesterase (J3SEZ3 24-851 limits assumed): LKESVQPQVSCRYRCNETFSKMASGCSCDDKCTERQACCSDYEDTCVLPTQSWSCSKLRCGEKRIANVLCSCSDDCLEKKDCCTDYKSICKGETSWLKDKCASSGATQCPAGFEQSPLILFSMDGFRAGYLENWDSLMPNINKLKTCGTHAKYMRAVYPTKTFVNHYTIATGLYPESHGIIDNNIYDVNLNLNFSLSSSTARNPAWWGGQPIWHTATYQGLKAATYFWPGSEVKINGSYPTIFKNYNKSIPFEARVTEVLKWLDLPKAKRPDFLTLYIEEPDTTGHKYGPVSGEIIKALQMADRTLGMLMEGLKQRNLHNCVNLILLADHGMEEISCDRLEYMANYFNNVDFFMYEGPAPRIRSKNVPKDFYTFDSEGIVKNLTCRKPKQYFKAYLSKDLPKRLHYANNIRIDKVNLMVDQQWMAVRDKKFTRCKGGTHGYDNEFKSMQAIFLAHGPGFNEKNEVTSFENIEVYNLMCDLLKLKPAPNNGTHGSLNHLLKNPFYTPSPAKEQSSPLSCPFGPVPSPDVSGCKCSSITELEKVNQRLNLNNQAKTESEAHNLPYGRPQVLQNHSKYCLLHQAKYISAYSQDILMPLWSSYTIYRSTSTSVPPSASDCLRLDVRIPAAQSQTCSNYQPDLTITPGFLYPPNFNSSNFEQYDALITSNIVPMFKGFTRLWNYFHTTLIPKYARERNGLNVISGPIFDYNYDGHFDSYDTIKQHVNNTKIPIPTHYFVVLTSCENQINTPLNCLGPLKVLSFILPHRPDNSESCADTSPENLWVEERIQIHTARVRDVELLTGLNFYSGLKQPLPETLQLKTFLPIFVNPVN

By melting point is commonly meant the temperature, or range, at which the solid turns liquid. In the case of `CC(C)(C)[Si](OC[C@@]12CO[C@@H]([C@H](n3cnc4c(NCc5ccccc5)ncnc43)O1)[C@@H]2OCc1ccccc1)(c1ccccc1)c1ccccc1`, the melting point lay in the range of 80 to 81 °C.

`CC(C)C(=O)Nc1nc2c(ncn2[C@@H]2O[C@@]3(CO[Si](c4ccccc4)(c4ccccc4)C(C)(C)C)CO[C@@H]2[C@@H]3OCc2ccccc2)c(=O)[nH]1` registered a melting point of 99 to 100 °C.

Consider “5′-GCGTTTTTTTGCT-3′ [natural, reference compound]”, for which, in data set [1], the “Tm for complementary RNA” value came out at 45 °C. Further, the “Tm for complementary DNA” value in data set [2] came to 47 °C.

In the case of 5′-GCGTTTTTXGCT-3′ [Compound T5X], in data set [1], the “Tm for complementary RNA” value is 51 °C and the “ΔTm/mod. for complementary RNA” value is “+6 °C”. Moreover, in data set [2], the “Tm for complementary DNA” value was 52 °C and the “ΔTm/mod. for complementary DNA” value is “+4 °C”.

Consider 5′-GCGTTTTXXGCT-3′ [Compound T4X2], for which, in data set [1], the “Tm for complementary RNA” value amounted to 55 °C and the “ΔTm/mod. for complementary RNA” value is “+5 °C”. Further, in data set [2], the “Tm for complementary DNA” value stood at 54 °C and the “ΔTm/mod. for complementary DNA” value is “+3.5 °C”.

For 5′-GCGTTTXTTGCT-3′ [Compound T3XT2], in data set [1], the “Tm for complementary RNA” value stood at 50 °C and the “ΔTm/mod. for complementary RNA” value is “+5 °C”. In addition, in data set [2], the “Tm for complementary DNA” value was found to be 49 °C and the “ΔTm/mod. for complementary DNA” value is “+2 °C”.

For 5′-GCGTTXTTTGCT-3′ [Compound T2XT3], in data set [1], the “Tm for complementary RNA” value came to 49 °C and the “ΔTm/mod. for complementary RNA” value was “+4 °C”. In addition, in data set [2], the “Tm for complementary DNA” value worked out at 49 °C and the “ΔTm/mod. for complementary DNA” value is “+2 °C”.

As to 5′-GCGTTXXTTGCT-3′ [Compound T2X2T2], in data set [1], the “Tm for complementary RNA” value was 53 °C and the “ΔTm/mod. for complementary RNA” value is “+4 °C”. Also, in data set [2], the “Tm for complementary DNA” value worked out at 49 °C and the “ΔTm/mod. for complementary DNA” value is “+1 °C”.

With 5′-GCGXTTTTTGCT-3′ [XT6], in data set [1], the “Tm for complementary RNA” value stood at 49 °C and the “ΔTm/mod. for complementary RNA” value was “+4 °C”. In addition, in data set [2], the “Tm for complementary DNA” value was determined as 50 °C and the “ΔTm/mod. for complementary DNA” value is “+3 °C”.

With 5′-GCGXXTTTTGCT-3′ [Compound X2T4], in data set [1], the “Tm for complementary RNA” value was 53 °C and the “ΔTm/mod. for complementary RNA” value was “+4 °C”. In data set [2], the “Tm for complementary DNA” value amounted to 51 °C and the “ΔTm/mod. for complementary DNA” value is “+2 °C”.

In the case of 5′-GCGXXXXXXGCT-3′ [Compound X6], in data set [1], the “Tm for complementary RNA” value turned out to be 71 °C and the “ΔTm/mod. for complementary RNA” value is “+4.3 °C”. Besides, the “increase in Tm per modified residue, complementary RNA” value in data set [1] (per modified residue versus natural strand) came to 4 degrees. In addition, the “increase in Tm over the natural strand, complementary RNA” value in data set [1] (setting [4]) is reported as “more than 25 degrees”. Further, in data set [2], the “Tm for complementary DNA” value turned out to be 58 °C and the “ΔTm/mod. for complementary DNA” value is “+1.8 °C”. The “rise in Tm as compared with the natural strand, complementary DNA oligomer” value in data set [2] (setting [4]) stood at 11 degrees.

On to 5′-GTTTTTTTTTTTC-3′ [natural type], for which, in data set [3], the “time until ultraviolet absorption reached a plateau after initiation of the enzyme reaction” value is “about 30 minutes”. The “t½ (half-life)” value in data set [3] (pH 8.6) turned out to be 4.33 min.

With `Cc1cn([C@@H]2O[C@@]3(CO)CO[C@@H]2[C@@H]3O)c(=O)[nH]c1=O` [Compound 39a, 2′-O,4′-C-methylene-5-methyluridine], the melting point was in the range of 194 to 195 °C.
